Data from patent US9446047B2, “Substituted 2,3-dihydro-1H-inden-1-one retinoic acid-related orphan nuclear receptor antagonists for treating multiple sclerosis” (Arrien Pharmaceuticals LLC, priority 2013, dated 2016).
pIC50: −log10 of the molar value. Like-named read-outs stand apart in the source and are kept apart here.

Key:
RORγt = molecular target: T1, RORγt (Homo sapiens, UniProt P51449); assay: RORγt-activated IL-17A Prom/LUCPorter HEK 293 cells luciferase reporter assay; type: cell-based; conditions: IL-17A Prom/LUCPorter HEK 293 cells transfected with RORγt, 16 h
T1 construct: host or cells: IL-17A Prom/LUCPorter HEK 293 cell line (IMGENEX, IML-301)
T1 sequence (P51449 1-497 isoform P51449-2): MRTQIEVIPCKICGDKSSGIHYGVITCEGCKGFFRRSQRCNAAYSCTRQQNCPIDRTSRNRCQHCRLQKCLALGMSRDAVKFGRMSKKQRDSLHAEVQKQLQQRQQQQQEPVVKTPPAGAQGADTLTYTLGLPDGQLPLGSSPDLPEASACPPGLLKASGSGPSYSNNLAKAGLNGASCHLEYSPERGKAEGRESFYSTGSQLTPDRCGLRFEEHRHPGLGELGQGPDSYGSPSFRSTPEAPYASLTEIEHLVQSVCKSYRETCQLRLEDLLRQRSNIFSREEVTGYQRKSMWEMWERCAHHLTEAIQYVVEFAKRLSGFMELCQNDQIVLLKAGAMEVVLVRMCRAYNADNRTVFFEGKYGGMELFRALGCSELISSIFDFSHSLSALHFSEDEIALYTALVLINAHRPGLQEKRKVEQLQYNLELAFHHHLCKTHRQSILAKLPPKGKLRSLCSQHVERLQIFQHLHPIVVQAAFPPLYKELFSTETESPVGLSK
Description: Antagonistic (or inverse agonistic) effects of the test compounds on the RORγt-activated IL-17A Prom/LUCPorter™ HEK 293 cells were analyzed and IC50 of each compound was evaluated. […] Luciferase activity was analyzed using the luciferase reporter assay reagent (IMGENEX, LS100). The data were analyzed using Excel and Prism software. Percent activity was defined as 100×(1−(Well−Control A)/(Control B−Control A)), where Control A was the wells containing cells transfected with RORγt and Control B was the wells containing non-transfected cells. Both Controls A and B were treated with vehicle alone.

RORγ-LBD (RORγt) = molecular target: T2, RORγ-LBD (RORγt) (Homo sapiens, UniProt P51449); assay: TR-FRET RORγt Binding Assay; conditions: 6-His(GST)RORγ-LBD, SRC1_2 peptide
T2 construct: the 6-His-(GST) RORγ-LBD was used which expressed and purified from baculovirus infected Sf-21 insect cells; made in house; host or cells: baculovirus-infected Sf-21 insect cells
T2 sequence (P51449 269-508 limits assumed): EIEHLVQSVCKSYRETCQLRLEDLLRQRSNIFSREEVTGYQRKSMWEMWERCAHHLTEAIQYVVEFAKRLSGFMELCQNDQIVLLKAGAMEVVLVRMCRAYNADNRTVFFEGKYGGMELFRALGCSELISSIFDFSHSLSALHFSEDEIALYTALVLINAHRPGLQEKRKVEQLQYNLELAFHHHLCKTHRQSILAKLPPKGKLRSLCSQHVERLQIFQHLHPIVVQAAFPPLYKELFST
Description: TR-FRET RORγt Binding Assay: RORγ-LBD contains a 6-His and GST tag peptide from SRC1-2 an aminoterminal biotinyl-[…] was employed and the 6-His-(GST) RORγ-LBD was used which expressed and purified from baculovirus infected Sf-21 insect cells from Invitrogen and purified using glutathione sepharose. […] The peptide binding due to dose-curves of compounds was added the 0.1% DMSO. Fluorescence at wavelength 340 nm was read in each well of […] using an Envision fluorescence reader in Time Resolved mode after overnight incubation at 4° C.

[1] = tested on: IL-17 release from CD4+ T cells; assay: Cytokine IL-17 estimation by HTRF, IL-17 release from CD4+ T cells; type: cell-based; conditions: Homo sapiens, read-out: IL-17 Inhibition
From the text: The assay was designed to assess the potency of test compounds on IL-17 cytokine release from CD4+ T cells. In order to aid in the identification of potent inhibitors, the IC50's determined for the test compounds IL-17 release from CD4+ T cells through the generation of 10 point Dose Response Curves (DRC). Assay methods used to quantify IL-17 secretion is HTRF (Homogenous Time Resolved Fluorescence). IL-17 secreted is detected by anti-IL-17 MAb labeled with XL665, the second MAb labeled with Cryptate, which binds to specific epitopes of human IL-17. Upon close proximity of both acceptor and donor energy transfer (FRET) occurs. This technique has been further enhanced by using long-lived labels combined with the detection on a time-resolved fluorescence basis, allowing […] of prompt fluorescence interferences.
The assay was performed according to manufacturer's instruction. All the reagents were reconstituted according to instructions provided. The reagents were dispensed into a half area 96-well plate in the following order: […] or sample, IL-17 MAbXL665 and 5 μL IL-17 Cryptate. For the negative control, the standard or sample is replaced by […]. The plate is covered with a plate sealer and incubated at rt for 2 h. Following incubation, the plate sealer is removed and the plate is read using HTRF protocol on Envision Microplate reader. All of the data analysis was carried out using Microsoft Excel (2010) and IC50 was determined using GraphPad Prism 4 software. % Inhibition of the test compounds were determined utilizing the following formula: % Inhibition=100−(100*(Average Test Compound Counts−Average Negative Control Counts)/(Average Positive Control Counts−Average Negative Control Counts)).
We have established robust in vitro cell-based HTRF assay for the activation and stimulation of CD4+ T lymphocytes to T helper 17 (Th17) cell differentiation and IL-17 production.

[2] = IL-17 release from CD4+ T cells, HTRF

| SMILES | pIC50 (RORγt; read-out: RORγt Cell Specific) | pIC50 (RORγ-LBD (RORγt); read-out: RORγt Binding) | pIC50 [1, 2] | pIC50 (RORγt; RORγt Cell Specific) | pIC50 (RORγ-LBD (RORγt); RORγt Binding) | pIC50 [1] |
| --- | --- | --- | --- | --- | --- | --- |
| COc1cc2c(cc1N1CCOCC1)CC(Cc1ccc(Cl)cc1F)C2=O (stereo not drawn) [compound 16, 2-(4-chloro-2-fluorobenzyl)-6-methoxy-5-morpholino-2,3-dihydro-1H-inden-1-one] | < 6.00 | < 6.00 | < 6.00 |  |  |  |
| COc1cc2c(cc1N1CCN(C)C(C)C1)CC(Cc1ccc(Cl)cc1F)C2=O (stereo not drawn) [compound 20, 2-(4-chloro-2-fluorobenzyl)-5-(3,4-dimethylpiperazin-1-yl)-6-methoxy-2,3-dihydro-1H-inden-1-one] | < 5.00 | < 6.00 | < 6.00 |  |  |  |
| COc1cc2c(cc1N1CCOCC1)CC(CC1CCN(Cc3ccccc3)CC1)C2=O (stereo not drawn) [compound 23, 2-((1-benzylpiperidin-4-yl)methyl)-6-methoxy-5-morpholino-2,3-dihydro-1H-inden-1-one] | < 6.00 | > 6.30 | > 6.30 |  |  |  |
| COc1cc2c(cc1N1CCN(C)C(C)C1)CC(CC1CCN(Cc3ccccc3)CC1)C2=O (stereo not drawn) [compound 25, 2-((1-benzylpiperidin-4-yl)methyl)-5-(3,4-dimethylpiperazin-1-yl)-6-methoxy-2,3-dihydro-1H-inden-1-one] | < 5.00 |  |  |  |  |  |
| COc1cc2c(cc1N1CCOCC1)CC(Cc1ccc(F)cc1F)C2=O (stereo not drawn) [compound 28, 2-(2,4-difluorobenzyl)-6-methoxy-5-morpholino-2,3-dihydro-1H-inden-1-one] | < 5.00 | < 6.00 | < 6.00 |  |  |  |
| COc1cc2c(cc1N1CCOCC1)C/C(=C\c1cc(Br)cc(OC(F)(F)F)c1)C2=O [compound 30, (E)-2-(3-bromo-5-(trifluoromethoxy)benzylidene)-6-methoxy-5-morpholino-2,3-dihydro-1H-inden-1-one] | < 5.00 | < 5.00 | < 6.00 |  |  |  |
| COc1cc2c(cc1N1CCOCC1)CC(Cc1cc(Br)cc(OC(F)(F)F)c1)C2=O (stereo not drawn) [compound 32, 2-(3-bromo-5-(trifluoromethoxy)benzyl)-6-methoxy-5-morpholino-2,3-dihydro-1H-inden-1-one] | > 6.30 | > 6.30 | < 6.00 |  |  |  |
| COc1cc2c(cc1N1CCOCC1)CC(Cc1cccc(C(F)(F)F)c1)C2=O (stereo not drawn) [compound 37, 6-methoxy-5-morpholino-2-(3-(trifluoromethyl)benzyl)-2,3-dihydro-1H-inden-1-one] |  |  | > 6.30 | > 6.30 | > 6.30 |  |
| COc1cc2c(cc1N1CCOCC1)CC(Cc1c(F)cccc1F)C2=O (stereo not drawn) [compound 42, 2-(2,6-difluorobenzyl)-6-methoxy-5-morpholino-2,3-dihydro-1H-inden-1-one] |  | < 6.00 | < 6.00 |  |  |  |
| COc1cc2c(cc1N1CCOCC1)CC(Cc1c(F)ccc(NC3CCN(C)CC3)c1F)C2=O (stereo not drawn) [compound 44, 2-(2,6-difluoro-3-((1-methylpiperidin-4-yl)amino)benzyl)-6-methoxy-5-morpholino-2,3-dihydro-1H-inden-1-one] |  |  | < 5.00 |  |  |  |
| COc1cc2c(cc1N1CCOCC1)CC(Cc1sc(N3CCOCC3)nc1Cl)C2=O (stereo not drawn) [compound 47, 2-((4-chloro-2-morpholinothiazol-5-yl)methyl)-6-methoxy-5-morpholino-2,3-dihydro-1H-inden-1-one] | < 6.00 | < 6.00 | < 6.00 |  |  |  |
| COc1cc2c(cc1N1CCOCC1)CC(Cc1cc(Cl)cc(C(F)(F)F)c1)C2=O (stereo not drawn) [compound 50, 2-(3-chloro-5-(trifluoromethyl)benzyl)-6-methoxy-5-morpholino-2,3-dihydro-1H-inden-1-one] | < 6.00 | > 6.30 | < 6.00 |  |  |  |
| COc1cc2c(cc1N1CCOCC1)CC(Cc1cc(Cl)ccc1C(F)(F)F)C2=O (stereo not drawn) [compound 53, 2-(5-chloro-2-(trifluoromethyl)benzyl)-6-methoxy-5-morpholino-2,3-dihydro-1H-inden-1-one] | < 6.00 | < 6.00 | < 6.00 |  |  |  |
| COc1cc2c(cc1N1CCOCC1)CC(Cc1ccc(Cl)cc1C(F)(F)F)C2=O (stereo not drawn) [compound 56, 2-(4-chloro-2-(trifluoromethyl)benzyl)-6-methoxy-5-morpholino-2,3-dihydro-1H-inden-1-one] | < 6.00 | < 6.00 | < 6.00 |  |  |  |
| COc1cc2c(cc1N1CCOCC1)CC(Cc1c(Cl)cccc1C(F)(F)F)C2=O (stereo not drawn) [compound 59, 2-(2-chloro-6-(trifluoromethyl)benzyl)-6-methoxy-5-morpholino-2,3-dihydro-1H-inden-1-one] | < 5.00 | < 6.00 | < 6.00 |  |  |  |
| COc1cc2c(cc1N1CCOCC1)CC(Cc1cc(C(F)(F)F)cnc1Cl)C2=O (stereo not drawn) [compound 62, 2-((2-chloro-5-(trifluoromethyl)pyridin-3-yl)methyl)-6-methoxy-5-morpholino-2,3-dihydro-1H-inden-1-one] | < 6.00 | < 6.00 |  |  |  | > 6.30 |
| COc1cc2c(cc1N1CCOCC1)CC(Cc1cc(C(F)(F)F)ccc1NC(=O)C(C)(C)C)C2=O (stereo not drawn) [compound 65, N-(2-((6-methoxy-5-morpholino-1-oxo-2,3-dihydro-1H-inden-2-yl)methyl)-4-(trifluoromethyl)phenyl)pivalamide] | < 6.00 | < 5.00 | < 6.00 |  |  |  |
| COc1cc2c(cc1N1CCOCC1)CC(Cc1ncccc1C(F)(F)F)C2=O (stereo not drawn) [compound 68, 6-methoxy-5-morpholino-2-((3-(trifluoromethyl)pyridin-2-yl)methyl)-2,3-dihydro-1H-inden-1-one] | > 6.30 | > 6.30 | > 6.30 |  |  |  |
| COc1cc2c(cc1N1CCOCC1)CC(Cc1ccc(C(F)(F)F)nc1)C2=O (stereo not drawn) [compound 71, 6-methoxy-5-morpholino-2-((6-(trifluoromethyl)pyridin-3-yl)methyl)-2,3-dihydro-1H-inden-1-one] | < 5.00 | < 5.00 | < 6.00 |  |  |  |
| COc1cc2c(cc1N1CCOCC1)CC(Cc1ccc(C(F)(F)F)nc1)C2=O (stereo not drawn) [compound 83] | < 6.00 | < 6.00 |  |  |  |  |
| COc1cc2c(cc1N1CCN(C)CC1)CC(Cc1cccc(C(F)(F)F)c1)C2=O (stereo not drawn) [compound 156] | > 6.30 | < 5.00 |  |  |  |  |
| COc1cc2c(cc1N1CCNCC1)CC(Cc1ncccc1C(F)(F)F)C2=O (stereo not drawn) [compound 249] | > 6.30 | < 6.00 |  |  |  |  |
| COc1cc2c(cc1N1CCN(C)CC1)CC(Cc1ncccc1C(F)(F)F)C2=O (stereo not drawn) [compound 250] |  | < 6.00 |  |  |  |  |
| COc1cc2c(cc1N1CCOCC1)CC(Cc1cncc(C(O)(C(F)(F)F)C(F)(F)F)c1)C2=O (stereo not drawn) [compound 264] |  | > 6.30 |  |  |  |  |
